Read-outs that look alike come from different tables or passages of the source.
Legend:
[1] = tested on: Tg4510 mice; assay: Neuronal counts in CA1 and CA3 regions of hippocampus (stereology) in Tg4510 mice; type: in vivo, mouse; details: Tg4510 mice at 5.5 months
Method: (§1) Mice were euthanized by cervical dislocation at 5. 5 months followed by decapitation. Brains were immediately removed and divided down the midline into two hemispheres. The right hemisphere was placed into 20 mL of 4% paraformaldehyde (prepared fresh on the day of sacrifice) and stored overnight at 4° C. The following day, the brains were transferred to a tube containing 20 mL TBS (pH 7.4, 20 mM TRIS, 100 mM NaCl) and then stored at 4° C. until processing. Right hemispheres were embedded in paraffin, sectioned at 5 microns, and mounted on positively charged glass slides. The slides were dried overnight in a 60° C. oven and stored at room temperature until stained. The left hemispheres were frozen (within 2 minutes) on dry ice.
Nissl stained slides were scanned and digitized using the Aperio ScanScope (Aperio Technologies, Inc., Vista, Calif.). Images of the entire brain section were captured at high resolution and stored as files within Spectrum (Aperio software). To process images, a region of 4,000×4,000 pixels including the entire hippocampus was captured using the extract tool and saved as a JPEG file for importing into Metamorph (Molecular Devices, Sunnyvale, Calif.) for quantification of cell loss within the CA1 and CA3 regions of the hippocampus. A modified version of the single section dissector method (Moller et al. 1990) was utilized to quantify cell loss because of its suitability for thin, paraffin-embedded tissue sections. To obtain relative numbers of cells, every fifth section was collected as the paraffin-embedded brains were cut sagitally between the Bregma and approximately 0.75 mm laterally. Three regions were drawn and counted per section using Metamorph software. The same regions were used for every image and 5 sections were counted per animal, 5 slides apart. Statistics were performed using ANOVA followed by Dunnett's post-hoc test.
Previous studies had shown that Tg4510 mice lost about 60% of their neurons in the CA1 region of the hippocampus at 5.5 months (Santacruz et al. 2005). […]

[2] = Plasma, brain and liver levels after oral gavage in C57BL/6 mice; type: in vivo, mouse
From the text: Below, we first report the experimental detail for preparation and isolation of Compound III, and then the biological, in vivo data is described.

[3] = tested on: phosphorylated Tau (AT8); assay: AT8 phosphoTau immunohistochemistry in Tg4510 mice; type: in vivo, mouse
Method: as §1
Paraffin-embedded thin sections (5 microns) were deparaffinized and rehydrated to water in 3 changes of xylene, two changes of 100% ethanol, and 1 change of 95% ethanol, followed by rinsing in water. Antigen retrieval was performed by steaming the slides in 10 mM sodium citrate buffer, pH 6.0 for 30 minutes in a Black and Decker Steamer (Model # HS900) and then cooled for 30 minutes. […] After washing in TBS, the signal is detected using a Vectastain ABC Elite Kit (Vector Labs Burlingame, Calif.) for 1 hour followed by detection using the diaminobenzadine reagent from Vector labs. […]

[4] = Plasma, brain and liver levels after bolus IV administration in nude mice; details: bolus IV 5 mpk; for concentration at 6 h / concentration at 24 h: nude, mouse, in vivo, iv, 5 mg/kg
[5] = tested on: Tg4510 mice; assay: Morris water maze (MWM) in Tg4510 mice; details: vs vehicle; for MWM acquisition: locating the hidden platform: tested at 4.5 months; for MWM probe trial % pathlength in target quadrant / MWM probe trial number of platform crossings: probe 18 h after 5 days of training
Method: A 10× stock solution was made in 100% ethanol, and diluted just before dosing. Mice were dosed in 3 cohorts and data were combined to give a final N of 12, 9, and 15 for the vehicle, 1 mpk, and 10 mpk groups, respectively. Mice were dosed in a chemical fume hood.
Tg4510 mice were used in this study. […] At 9 weeks (+/−15 days) of age, mice were acclimated to handling with a single mock injection of phosphate buffered saline, performed within a chemical fume hood. The mice were then housed in cages kept within the chemical fume hood for 48 hours. Following the 48-hour period, the mice were transferred to clean cages and brought to a behavioral suite for testing.
Mice were again tested in the MWM after the eighth dose (19 weeks of age+/−15 days) for six days. After behavioral testing, dosing resumed until the animals were 5.5 months of age at the time of harvest.
Mice were tested in Morris water maze (MWM) on two occasions, once prior to dosing, and once two months after dosing began. The second round of water maze testing was performed in another testing room. Mice were acclimated to the experimental room for 2-3 days prior to testing. The mice were placed in a water maze of 1.5 m diameter, with a 16 cm diameter platform placed 0.5-1.0 cm under the surface of the water. The water was made opaque with non-toxic white paint and the water temperature was regulated between 22-25° C.
The mice were given 4 trials per day of up to 90 seconds each with a 10 second rest period on the platform after each trial. […] The testing room rooms each had large external cues to allow the mice to orient as they learned the location of the platform. Mice were placed under a heat lamp to prevent hypothermia after each trial. The interval between trials ranged from 25 to 45 minutes. The mice were tracked using HVS Image Advanced Tracker VP200 software (Buckingham, UK) and the total distance traveled until reaching of the platform was determined.
Statistical analysis for acquisition path length from the five trials involved a repeated measures analysis of variance. […] If the analysis indicated a significant effect of treatment, or a treatment-by-trial interaction, differences between the 1 mpk and 10 mpk groups were compared to the vehicle group using Dunnett's test. The probe pathlengths in each quadrant, and number of platform crossings in each quadrant, were analyzed using Dunnett's test. In all cases, 1 mpk and 10 mpk groups were compared to the vehicle group. All calculations were done in SAS, version 9.1, under the Windows XP Professional operating system.

[6] = Plasma, brain and liver levels of epothilone D after bolus IV in triple transgenic mice; type: in vivo, mouse; details: bolus IV 5 mpk; for concentration at […]: .33 hr
From the text: To calculate an accurate brain half-life for a long half-life compound, measurements need to be taken for several half lives after a single dose.

[7] = mouse, brain, 10 mg/kg, C57BL/6 mice, oral gavage 10 mpk, read-out: Brain conc
[8] = mouse, brain, 35 mg/kg, C57BL/6 mice, oral gavage 35 mpk, read-out: Brain conc
[9] = mouse, plasma, 10 mg/kg, C57BL/6 mice, oral gavage 10 mpk, read-out: Plasma conc
[10] = mouse, plasma, 35 mg/kg, C57BL/6 mice, oral gavage 35 mpk, read-out: Plasma conc
[11] = triple transgenic (Oddo et al. 2003), mouse, brain, 5 mg/kg, read-out: Brain conc
[12] = triple transgenic (Oddo et al. 2003), mouse, plasma, 5 mg/kg, read-out: Plasma conc

C/C1=C/C[C@@H](/C(C)=C/c2csc(C)n2)OC(=O)C[C@H](O)C(C)(C)C(=O)[C@H](C)[C@@H](O)[C@@H](C)CCC1 [Epothilone D, epothilone D]
CA3 total cell count ([1]; 1 mpk IP weekly, vs vehicle): significant differences between the 1 mpk and non-transgenic mice compared to vehicle treated mice | CA1 neuronal count ([1]; 1 mpk IP weekly, vs vehicle, p<0.01): substantially more CA1 neurons than vehicle-treated animals | CA1 neuronal count ([1]; 10 mpk IP weekly): intermediate between the vehicle-treated mice and the mice treated with 1 mpk | Plasma conc ([2]; C57BL/6 mice, oral gavage 10 mpk, 48 hr): (0.1 nM) | Plasma conc ([2]; C57BL/6 mice, oral gavage 10 mpk, 96 hr): (0.1 nM) | Plasma conc ([2]; C57BL/6 mice, oral gavage 35 mpk, 24 hr): (0.5 nM) | concentration at 1 h [2, 7]: 10.6 nM | concentration at 3 h [2, 7]: 7 nM | concentration at 4 h [2, 7]: 9.9 nM | concentration at 8 h [2, 7]: 6.4 nM | concentration at 13 h [2, 7]: 6.3 nM | concentration at 24 h ([2]; mouse, brain, 10 mg/kg, C57BL/6 mice, oral gavage 10 mpk, 24 hr, read-out: Brain conc): 9.1 nM | concentration at 48 h ([2]; mouse, brain, 10 mg/kg, C57BL/6 mice, oral gavage 10 mpk, 48 hr, read-out: Brain conc): 5.4 nM | concentration at 96 h ([2]; mouse, brain, 10 mg/kg, C57BL/6 mice, oral gavage 10 mpk, 96 hr, read-out: Brain conc): 3 nM | concentration at 1 hr [2, 8]: 61.3 nM | concentration at 5 hr [2, 8]: 76.9 nM | concentration at 24 hr ([2]; mouse, brain, 35 mg/kg, C57BL/6 mice, oral gavage 35 mpk, 24 hr, read-out: Brain conc): 118 nM | concentration at 1 h [2, 9]: 15.1 nM | concentration at 3 h [2, 9]: 3.9 nM | concentration at 4 h [2, 9]: 2.5 nM | concentration at 8 h [2, 9]: 1.4 nM | concentration at 13 h [2, 9]: 0.1 nM | concentration at 24 h ([2]; mouse, plasma, 10 mg/kg, C57BL/6 mice, oral gavage 10 mpk, 24 hr, read-out: Plasma conc): 0.2 nM | concentration at 1 hr [2, 10]: 52.7 nM | concentration at 5 hr [2, 10]: 3.6 nM | time brain levels were maintained ([2]; oral dosing 10 and 35 mpk (also IV, Table 2)): more than 24 h | AT8 phosphoTau staining, hippocampus CA1 ([3]; 1 mpk IP weekly, vs vehicle): much less phosphoTau staining | AT8 phosphoTau staining, hippocampus CA1 ([3]; 10 mpk IP weekly): intermediate levels of phosphoTau staining | brain levels versus liver levels ([4]; 6 and 24 h after dosing): high brain levels that exceeded liver levels | concentration at 6 h ([4]; Brain conc): 2790 nM | concentration at 24 h ([4]; Brain conc): 2050 nM | concentration at 6 h ([4]; Plasma conc): 6 nM | concentration at 24 h ([4]; Plasma conc): 1 nM | MWM acquisition: locating the hidden platform ([5]; 1 mpk IP once weekly, p<0.01): able to locate the hidden platform in the MWM more quickly | MWM probe trial % pathlength in target quadrant ([5]; 1 mpk IP weekly for 2 months): statistically significant differences in both measures as compared with the vehicle group | MWM probe trial number of platform crossings ([5]; 1 mpk IP weekly for 2 months): statistically significant differences in both measures as compared with the vehicle group | MWM acquisition: locating the hidden platform ([5]; 10 mpk IP once weekly): trend toward improvement | MWM probe trial % pathlength in target quadrant ([5]; 10 mpk IP weekly for 2 months): significantly greater performance compared to the vehicle group | MWM probe trial number of platform crossings ([5]; 10 mpk IP weekly for 2 months): not when using the number of platform crossings measure | retention in brain tissue after a single dose [6]: at least 168 h | Plasma conc ([6]; 96 hr): <LLQ (0.6 nM) | Plasma conc ([6]; 168 hr): <LLQ (0.6 nM) | concentration at 24 h ([6]; mouse, liver, 5 mg/kg, below LLQ, read-out: liver levels): < 49 nM | concentration at 0.05 h [6, 11]: 1.13 µM | concentration at 0.17 h [6, 11]: 595 nM | concentration at 1 h [6, 11]: 422 nM | concentration at 3 h [6, 11]: 468 nM | concentration at 6 h [6, 11]: 141 nM | concentration at 16 h [6, 11]: 210 nM | concentration at 24 h [6, 11]: 82.7 nM | concentration at 96 h ([6]; triple transgenic (Oddo et al. 2003), mouse, brain, 5 mg/kg, 96 hr, read-out: Brain conc): 25.2 nM | concentration at 168 h ([6]; triple transgenic (Oddo et al. 2003), mouse, brain, 5 mg/kg, 168 hr, read-out: Brain conc): 16.3 nM | concentration at […] [6, 11]: 529 nM | concentration at 0.05 h [6, 12]: 25.1 µM | concentration at 0.17 h [6, 12]: 2000 nM | concentration at 1 h [6, 12]: 325 nM | concentration at 3 h [6, 12]: 70 nM | concentration at 6 h [6, 12]: 43 nM | concentration at 16 h [6, 12]: 0.8 nM | concentration at 24 h [6, 12]: 0.9 nM | concentration at […] [6, 12]: 549 nM

From patent US8673949B2 (Bristol-Myers Squibb Company, priority 2008, dated 2014)
